Measurements: BindingDB's records for PubMed 11408610 (Virginia Commonwealth University, 2001)

Target: Cannabinoid receptor 1 (Rattus norvegicus, UniProt P20272)
Sequence (P20272 whole entry): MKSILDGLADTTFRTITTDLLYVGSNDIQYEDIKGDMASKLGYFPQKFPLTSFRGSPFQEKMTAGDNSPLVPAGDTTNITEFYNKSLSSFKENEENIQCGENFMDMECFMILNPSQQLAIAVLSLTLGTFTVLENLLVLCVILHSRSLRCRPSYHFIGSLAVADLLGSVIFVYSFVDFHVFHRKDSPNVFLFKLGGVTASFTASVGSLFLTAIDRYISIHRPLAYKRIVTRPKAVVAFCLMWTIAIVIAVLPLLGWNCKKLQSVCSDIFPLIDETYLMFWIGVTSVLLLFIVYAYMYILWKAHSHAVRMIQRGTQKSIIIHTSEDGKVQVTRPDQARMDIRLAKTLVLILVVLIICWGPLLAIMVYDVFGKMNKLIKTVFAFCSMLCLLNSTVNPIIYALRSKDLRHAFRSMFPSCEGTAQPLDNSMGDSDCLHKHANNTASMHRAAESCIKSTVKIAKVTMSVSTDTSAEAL

How did the Ki turn out when `CCCCCCC(C)(C)c1cc(O)c2c(c1)OC(C)(C)[C@@H]1CC=C(CO)CC21` (stereo partly drawn) [(R)-3-(1,1-Dimethyl-heptyl)-9-hydroxymethyl-6,6-dimethyl-6a,7,10,10a-tetrahydro-6H-benzo[c]chromen-1-ol] was run?
Its Ki is 0.73 nM.

How did the Ki turn out when `CCCCCCn1ccc(C(=O)c2cccc3ccccc23)c1` [CAS_162934-74-9] was run?
Its Ki is 399 nM.

For `CCCCC/C=C/C/C=C/C/C=C/C/C=C/CCC(C)C(=O)NCCO` (configuration not stated) [(5Z,8Z,11Z,14Z)-2-Methyl-N-(2-hydroxyethyl)-5,8,11,14-icosatetrenamide], which Ki is on record?
The Ki was 53 nM.

With `CCCn1ccc(C(=O)c2cccc3ccccc23)c1` [JWH-032] as the molecule, how does the Ki read?
The Ki was greater than 10000 nM.

For `CCCCCCCn1ccc(C(=O)c2cccc3ccccc23)c1` [JWH-036], which Ki is on record?
The Ki was 309 nM.

`CCCCC/C=C/C/C=C/C/C=C/C/C=C/CCC(C)(C)C(=O)NCCO` [2-dimethyl-anandamide] was tested. Which Ki did it give?
The Ki was 47 nM.

With `CCn1ccc(C(=O)c2cccc3ccccc23)c1` [JWH-045] as the molecule, how does the Ki read?
Its Ki is greater than 10000 nM.

Which Ki does the source give for `CCCCCn1ccc(C(=O)c2cccc3ccccc23)c1` here?
Its Ki is 87 nM.

With `CCCCCc1cc(O)c2c(c1)OC(C)(C)c1ccc(C)cc1-2` [6,6,9-Trimethyl-3-pentyl-6H-benzo[c]chromen-1-ol(Cannabinol)] as the molecule, how does the Ki read?
The Ki was 308 nM.

With `CCCCn1cc(C(=O)c2cccc3ccccc23)c2ccccc21` [1-Naphthyl(1-butyl-1H-indole-3-yl)methanone] as the molecule, how does the Ki read?
The Ki was 8.9 nM.

For `Cn1ccc(C(=O)c2cccc3ccccc23)c1` [JWH-044], which Ki is on record?
Its Ki is greater than 10000 nM.

With `CCCCC/C=C/C/C=C/C/C=C/C/C=C/CCC(C)C(=O)NCCF` (configuration not stated) [(5Z,8Z,11Z,14Z)-N-(2-Fluoroethyl)-2-methyl-5,8,11,14-icosatetrenamide] as the molecule, how does the Ki read?
Its Ki is 5.7 nM.
